Reference: ChEMBL document CHEMBL3763013, “Prospective of curcumin, a pleiotropic signalling molecule from Curcuma longa in the treatment of Glioblastoma” (Eur J Med Chem, 2016)

Legend:
U138MG = assay: Inhibition of PI3K in human U138MG cells assessed as decrease in phosphorylated AKT level by western blot analysis; assay type: cell-based
Plasma [1] = assay: Plasma concentration in human at 2 g, po; assay type: ADME
[2] = Drug uptake in human serum at 4 g/day, po administered for 3 months; assay type: ADME, organism-based; conditions: read-out: Drug uptake
[3] = Drug uptake in human serum at 6 g/day, po administered for 3 months; assay type: ADME, organism-based; conditions: read-out: Drug uptake
[4] = Drug uptake in human serum at 8 g/day, po administered for 3 months; assay type: ADME, organism-based; conditions: read-out: Drug uptake
[5] = Cmax in human at 10 g, po administered as single dose; assay type: ADME, organism-based; parameters: dose 10 g, route oral; conditions: in vivo
[6] = Cmax in human at 12 g, po administered as single dose; assay type: ADME, organism-based; parameters: dose 12 g, route oral; conditions: in vivo
[7] = Tmax in human at 10 g, po administered as single dose; assay type: ADME, organism-based; conditions: in vivo
[8] = Half life in human at 10 g, po administered as single dose; assay type: ADME, organism-based; conditions: in vivo
Homo sapiens = assay: Drug metabolism in human assessed as ratio of glucuronide to sulfate at 10 and 12 g, po administered as single dose; assay type: ADME, organism-based; conditions: in vivo
[9] = Plasma concentration in human at 3.6 g/day, po measured after 0.5 and 1 hr; assay type: ADME, organism-based
[10] = Drug excretion in human urine at 3.6 g/day, po; assay type: ADME, tissue-based
[11] = Drug uptake in human normal colorectal tissue at 3.6 g/day, po; assay type: ADME
[12] = Drug uptake in human malignant colorectal tissue at 3.6 g/day, po; assay type: ADME
[13] = Tmax in human at 12 g, po administered as single dose; assay type: ADME, organism-based; conditions: in vivo
[14] = Half life in human at 12 g, po administered as single dose; assay type: ADME, organism-based; conditions: in vivo
Plasma [15] = assay: Drug metabolism in human plasma assessed as compound glucuronide conjugate at 3.6 g/day, po measured after 0.5 and 1 hr; assay type: ADME, organism-based
Plasma [16] = assay: Drug metabolism in human plasma assessed as compound sulfate conjugate at 3.6 g/day, po measured after 0.5 and 1 hr; assay type: ADME, organism-based
[17] = Drug metabolism in human urine assessed as compound glucuronide conjugate at 3.6 g/day, po measured after 0.5 and 1 hr; assay type: ADME, organism-based; conditions: in vivo
[18] = Drug metabolism in human urine assessed as compound sulfate conjugate at 3.6 g/day, po measured after 0.5 and 1 hr; assay type: ADME, organism-based; conditions: in vivo

COc1cc(/C=C/C(=O)CC(=O)/C=C/c2ccc(O)c(OC)c2)ccc1O [CURCUMIN]
inhibition (U138MG): 80% | Cp (Plasma [1]): 10 ng/mL | concentration at 3 months [2]: 510 nM | concentration at 3 months [3]: 630 nM | concentration at 3 months [4]: 1770 nM | Cmax [5]: 2300 ng/mL | Cmax [6]: 1730 ng/mL | Tmax [7]: 3.29 h | half-life [8]: 6.77 h | Ratio (Homo sapiens): 1.92 | concentration at 1 h [9]: 11.1 nM | Drug excretion [10]: 0.1 µmol/L | Drug uptake [11]: 12.7 nmol/g | Drug uptake [12]: 7.7 nmol/g | Tmax [13]: 3.29 h | half-life [14]: 6.77 h | Drug metabolism (Plasma [15]): 15.8 nmol/L | Drug metabolism (Plasma [16]): 8.9 nmol/L | Drug metabolism [17]: 210 nmol/L | Drug metabolism [18]: 19 nmol/L
